# Source: patent publication US20190314196A1, “Topical Ocular Delivery Methods and Devices for Use in the Same” (Kedalion Therapeutics, Inc., priority 2018, published 2019)
# Tests used:
# Assay type in all cases: in vivo, human
# eye of subjects [1] = experiment: Presbyopia: pupil diameter after self-administered pilocarpine micro-dose
# Experimental: (§1) A 10 μl micro-dose of a 1% pilocarpine solution was self-administered using an electromagnetic actuated fluid delivery device, e.g., as described above, by three subjects to their own eye. The age range of the subjects was 52 years to 68 years, and all subjects were male. The pilocarpine micro-dose was self-administered by the subjects.
# (§2) Baseline, pre-dose values of pupil diameter and near visual acuity in both eyes prior to dosing was measured for all subjects, and then following the baseline measurements, the subjects were dosed in only one eye (the eye with the poorer visual acuity) with the micro-dose pilocarpine solution. Approximately 45 to 60 minutes after dosing, pupil diameter and near visual acuity were again tested. Near visual acuity was measured using a Snellen card at a distance of 40 cm. A tabulation of results is given below in Table A.
# eye of subjects [2] = experiment: Presbyopia: near visual acuity, Snellen card at 40 cm; conditions: 45 to 60 minutes after dosing
# Experimental: as §1, §2
# [3] = test system: patients diagnosed with primary open angle glaucoma; experiment: Trial 2: intraocular pressure reduction, Goldmann applanation tonometry; conditions: for Post-treatment IOP, Mean: 0.005% w/v, N=18 eyes; for Post-treatment IOP, Mean / average decrease in IOP measured per patient / Post-treatment IOP, Median: approx. 8 hours after dosing; for Post-treatment IOP, Median: baseline median 18.0; for Total pressure reduction, Mean / Total pressure reduction, Median: signed change from baseline
# Experimental: Trial 2 compared the efficacy (dose volume equivalence) of 0.005% w/v latanoprost for intraocular pressure reduction when delivered via AcuStream™ (pre-trial calibration volume=9.2 μl) versus the standard eye dropper for topical drug delivery (approximate volume=30 μl).
# Patients included in Trial 2 have previously been diagnosed with primary open angle glaucoma on the basis of intraocular pressure and visual field testing, fundus examination or optical coherence tomography (OCT) data and are currently on prostaglandin analog medical therapy. Patients with corneal abnormalities that would interfere with accurate IOP measurements with applanation tonometry, use of an oral or topical ophthalmic steroids within the past 14 days from screening date, any active ocular surface or anterior segment disease, or progressive field loss during the past year were excluded from the study. Thirteen men and five women participated in the trial.
# Recruited patients were taken off medical therapy for a period of 3-4 weeks prior to the study to allow drug “wash out”, thereby elevating their IOPs to pre-treatment levels which was confirmed by examination of the patients' chart history. Patients were randomly assigned as “test” (AcuStream™), or “control” (standard eye dropper). The mean age of the control group and test group were 61.0 years and 65.2 years, respectively.
# The patients assigned to either the “test” or “control” group by means of a random numbers table in order to mitigate any potential cross-over effects that could confound data interpretation. An odd number dictated that the patient was in the test group, while even-numbered patients were in the control group.
# After performing slit lamp examinations on each patient to verify eligibility and obtaining informed consent, intraocular pressure (IOP) was measured by a sole experienced examiner who was blind to the randomized conditions. A pre-calibrated Goldmann applanation tonometer coupled to a Haag-Streit 900 EQ slit lamp was used to conduct baseline IOP measurements. Once baseline IOP data were verified to be equivalent to pre-medical therapy levels (based on patient's treatment history), the patient then continued to the dosing stage of the study.
# Latanoprost solution was administered by a sole ophthalmologist to both eyes of each patient, based on the pre-determined randomized condition.
# [4] = standard eye dropper control group
smiles,measurement,setting,value
CC[C@@H]1C(=O)OC[C@@H]1Cc1cncn1C [pilocarpine],Mean change in dosed pupil dia,"eye of subjects [1]; dosed eye, 10 μl micro-dose of 1% solution, 45 to 60 minutes after dosing, 3 subjects",−0.7 mm
same,Mean post-dose pupil dia,"eye of subjects [1]; dosed eye, 10 μl micro-dose of 1% solution, 45 to 60 minutes after dosing, 3 subjects, baseline mean 2.9 mm",2.2 mm
same,mean reduction in pupil diameter,"eye of subjects [1]; dosed eye, 10 μl micro-dose of 1% solution, all subjects",0.70 mm
same,miotic effect in non-dosed eye,eye of subjects [1]; non-dosed contralateral eye,no miotic effect
same,Mean change in non-dosed pupil dia,"eye of subjects [1]; non-dosed contralateral eye, 45 to 60 minutes after dosing",0.2 mm
same,Mean non-dose pupil dia,"eye of subjects [1]; non-dosed contralateral eye, 45 to 60 minutes after dosing, baseline mean 2.8 mm",3.0 mm
same,Median dosed eye near visual acuity,eye of subjects [2]; baseline median 20/30,20/20
same,# of lines change in visual acuity (mean improvement),"eye of subjects [2]; dosed eye, 3 subjects",2 lines
CC(C)OC(=O)CCC/C=C\C[C@@H]1[C@@H](CC[C@@H](O)CCc2ccccc2)[C@H](O)C[C@@H]1O [latanoprost],difference in IOP reduction between groups,[3]; AcuStream 9.2 μl versus standard eye dropper 30 μl,no statistically significant differences
same,"Post-treatment IOP, Mean","[3]; AcuStream test group, 9.2 μl, baseline 18.6",13.6 mm Hg
same,average decrease in IOP measured per patient,[3]; AcuStream test group,5.0 mm Hg
same,"Post-treatment IOP, Median",[3]; AcuStream test group,13.0 mm Hg
same,"Total pressure reduction, Mean",[3]; AcuStream test group,−5.0 mm Hg
same,"Total pressure reduction, Median",[3]; AcuStream test group,−5.0 mm Hg
same,"post-instillation IOP (OD), single patient outlier","[3]; control group, baseline IOP 30 mm Hg",17 mm Hg
same,"equivalence of 9.2 μl AcuStream dose to 30 μl standard eye drop, intraocular pressure reduction",[3]; latanoprost 0.005% w/v,pharmacodynamic equivalence
same,"Post-treatment IOP, Mean","[3]; standard eye dropper control group, approx. 30 μl, baseline 17.7",13.3 mm Hg
same,average decrease in IOP measured per patient,[3]; [4],4.3 mm Hg
same,"Post-treatment IOP, Median",[3]; [4],12.0 mm Hg
same,"Total pressure reduction, Mean",[3]; [4],−4.3 mm Hg
same,"Total pressure reduction, Median",[3]; [4],−4.0 mm Hg
